Reference: patent US4868181A, “1,4-dihydropyridine derivatives with calcium agonist and alpha1 -antagonist activity” (E. I. Du Pont de Nemours and Company, priority 1987, dated 1989)

Assays:
alpha1 -adrenoceptors = experiment: [^3 H]-prazosin binding assay (affinity for alpha1-adrenoceptors); conditions: rat brain membranes, 0.2 nM [^3 H]-prazosin, 60 minutes at 25°
Experimental: The [^3 H]-prazosin binding assay was carried out according to the method described by Timmermans, P. B. M. W. M., Schoop, A. M. C., and Van Zwieten, P. A.: Biochem Pharmacol., 31, 899-905, 1982 (1). The reaction mixture contained partially purified rat brain membranes (source of alpha1 -adrenoceptors), 0.2 nM [^3 H]-prazosin with or without potential displacer in Tris buffer. The mixture was incubated for 60 minutes at 25° and subsequently terminated by rapid filtration through glass fiber-filter. Receptor-bound [^3 H]-prazosin trapped in the filter was quantitated by scintillation counting. The inhibitory concentration (IC50) of potential displacer which gives 50% displacement of the total specifically bound [^3 H]-prazosin is presented as a measure of the affinity of such compound for the alpha1 -adrenoceptor.

Ca^2 + channels = biological target: T1, Ca^2 + channels (Rattus norvegicus, UniProt P22002); experiment: [^3 H]-Nitrendipine binding assay (affinity for calcium channels); conditions: rat cardiac microsomes, 0.5 nM [^3 H]-nitrendipine, 60 minutes at 25°
T1 construct: rat cardiac microsomes (source of Ca^2 + channels); from tissue; host or cells: rat cardiac microsomes
Experimental: [^3 H]-Nitrendipine binding assay was carried out according to the method described by G. T. Bolger, et al., Biochem. Biophys. Res. Comm., 104, 1604-1609, 1982 (1). The reaction mixture contained rat cardiac microsomes (source of Ca^2 + channels), 0.5 nM [^3 H]-nitrendipinewith or without potential displacer in Tris buffer. The mixture was incubated for 60 minutes at 25° and subsequently terminated by rapid filtration through a glass fiber-filter. Membrane-bound [^3 H]-nitrendipine trapped in the filter was quantitated by scintillation counting. The inhibitory concentration (IC50) of potential displacer which gives 50% displacement of the total specifically bound [^3 H]-nitrendipine is presented as a measure of the affinity of such compound for the Ca^2 + channel.

guinea pig left atria = experiment: Positive inotropic effect in guinea pig left atria; conditions: 37°; for EC50: left atria paced at 2Hz, cumulative addition to maximum 10^-4, read-out: EC50 (concentration that increases DT by 50% above the control DT); for Intrinsic Activity (ratio of the maximum effect of the test compound to that of Bay K 8644): relative to Bay K 8644, left atria paced at 2Hz
Experimental: Guinea pigs are killed by cervical dislocation. The left atria are removed and mounted at 1 gm resting tension in tissue baths containing oxygenated Krebs bicarbonate solution which is kept at 37°. The left atria are electrically paced at 2Hz with square wave pulses of 1 msec duration. The voltage is set at 1.5× threshold level.
After a one hour equilibration period, control values for developed tension (DT, gm) are recorded. Test compounds are then added to the baths, in a cumulative manner to a maximum concentration of 10^-4, to obtain a concentration-response curve. Treatment values of DT are obtained after the rug effect has reached a plateau and the exposure time for each concentration is 5-8 minutes. Percent change of the treatment value from the control value is calculated at each concentration of the test compound.

T1 sequence (P22002 whole entry, other chains not shown): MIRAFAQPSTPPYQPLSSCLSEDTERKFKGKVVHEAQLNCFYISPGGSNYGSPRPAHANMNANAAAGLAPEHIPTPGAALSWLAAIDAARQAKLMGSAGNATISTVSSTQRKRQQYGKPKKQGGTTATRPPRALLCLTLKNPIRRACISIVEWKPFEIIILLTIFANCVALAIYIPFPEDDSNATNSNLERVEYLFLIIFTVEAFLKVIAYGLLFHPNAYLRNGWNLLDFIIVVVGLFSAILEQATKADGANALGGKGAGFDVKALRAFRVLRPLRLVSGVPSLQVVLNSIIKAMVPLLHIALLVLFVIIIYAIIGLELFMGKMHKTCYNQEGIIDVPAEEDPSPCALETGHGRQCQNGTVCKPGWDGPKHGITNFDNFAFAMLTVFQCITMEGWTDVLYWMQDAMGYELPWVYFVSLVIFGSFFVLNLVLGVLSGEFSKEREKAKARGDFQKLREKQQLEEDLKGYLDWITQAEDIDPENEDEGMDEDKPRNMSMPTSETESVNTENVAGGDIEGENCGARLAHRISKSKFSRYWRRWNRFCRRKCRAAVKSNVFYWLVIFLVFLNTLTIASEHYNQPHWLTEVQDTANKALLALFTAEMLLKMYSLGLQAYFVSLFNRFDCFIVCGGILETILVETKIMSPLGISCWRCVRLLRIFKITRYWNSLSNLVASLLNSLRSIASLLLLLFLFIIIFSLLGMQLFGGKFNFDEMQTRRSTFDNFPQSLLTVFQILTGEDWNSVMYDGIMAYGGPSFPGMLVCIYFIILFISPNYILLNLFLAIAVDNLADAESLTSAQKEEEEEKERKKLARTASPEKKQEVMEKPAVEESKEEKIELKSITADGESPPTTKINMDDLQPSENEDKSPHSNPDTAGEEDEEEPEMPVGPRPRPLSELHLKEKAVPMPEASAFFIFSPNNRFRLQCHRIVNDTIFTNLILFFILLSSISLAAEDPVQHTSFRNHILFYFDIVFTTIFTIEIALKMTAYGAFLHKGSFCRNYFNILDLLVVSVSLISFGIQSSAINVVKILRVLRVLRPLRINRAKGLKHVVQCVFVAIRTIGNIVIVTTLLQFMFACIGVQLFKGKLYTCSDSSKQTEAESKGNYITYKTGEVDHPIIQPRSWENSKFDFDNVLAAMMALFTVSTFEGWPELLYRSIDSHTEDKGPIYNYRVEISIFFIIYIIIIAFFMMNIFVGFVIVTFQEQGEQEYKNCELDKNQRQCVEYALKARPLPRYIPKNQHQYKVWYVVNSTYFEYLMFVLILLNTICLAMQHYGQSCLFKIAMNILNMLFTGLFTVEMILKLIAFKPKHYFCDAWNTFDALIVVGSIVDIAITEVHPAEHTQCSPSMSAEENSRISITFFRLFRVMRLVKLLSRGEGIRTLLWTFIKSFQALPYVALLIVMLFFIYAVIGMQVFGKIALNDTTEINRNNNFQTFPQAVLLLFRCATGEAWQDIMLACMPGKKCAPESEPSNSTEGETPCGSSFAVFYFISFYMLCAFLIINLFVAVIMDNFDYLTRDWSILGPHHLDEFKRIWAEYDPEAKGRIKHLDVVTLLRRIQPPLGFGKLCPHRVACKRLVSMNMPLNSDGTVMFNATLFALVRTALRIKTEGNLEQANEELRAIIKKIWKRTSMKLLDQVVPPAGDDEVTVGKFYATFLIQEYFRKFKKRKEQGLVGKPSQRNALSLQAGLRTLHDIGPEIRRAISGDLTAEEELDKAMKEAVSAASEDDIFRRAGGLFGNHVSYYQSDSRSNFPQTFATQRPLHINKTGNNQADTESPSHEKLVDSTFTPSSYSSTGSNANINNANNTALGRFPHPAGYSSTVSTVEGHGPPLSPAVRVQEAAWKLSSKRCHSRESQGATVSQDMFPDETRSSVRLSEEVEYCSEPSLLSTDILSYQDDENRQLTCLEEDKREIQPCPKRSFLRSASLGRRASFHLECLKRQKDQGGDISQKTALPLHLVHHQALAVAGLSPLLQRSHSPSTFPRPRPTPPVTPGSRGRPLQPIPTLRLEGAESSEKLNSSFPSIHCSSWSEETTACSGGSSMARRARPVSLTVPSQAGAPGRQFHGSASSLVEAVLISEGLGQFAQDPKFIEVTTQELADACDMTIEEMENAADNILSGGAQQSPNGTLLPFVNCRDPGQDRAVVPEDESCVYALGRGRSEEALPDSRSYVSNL
T1 sequence (P54290 25-944 partner limits assumed, other chains not shown): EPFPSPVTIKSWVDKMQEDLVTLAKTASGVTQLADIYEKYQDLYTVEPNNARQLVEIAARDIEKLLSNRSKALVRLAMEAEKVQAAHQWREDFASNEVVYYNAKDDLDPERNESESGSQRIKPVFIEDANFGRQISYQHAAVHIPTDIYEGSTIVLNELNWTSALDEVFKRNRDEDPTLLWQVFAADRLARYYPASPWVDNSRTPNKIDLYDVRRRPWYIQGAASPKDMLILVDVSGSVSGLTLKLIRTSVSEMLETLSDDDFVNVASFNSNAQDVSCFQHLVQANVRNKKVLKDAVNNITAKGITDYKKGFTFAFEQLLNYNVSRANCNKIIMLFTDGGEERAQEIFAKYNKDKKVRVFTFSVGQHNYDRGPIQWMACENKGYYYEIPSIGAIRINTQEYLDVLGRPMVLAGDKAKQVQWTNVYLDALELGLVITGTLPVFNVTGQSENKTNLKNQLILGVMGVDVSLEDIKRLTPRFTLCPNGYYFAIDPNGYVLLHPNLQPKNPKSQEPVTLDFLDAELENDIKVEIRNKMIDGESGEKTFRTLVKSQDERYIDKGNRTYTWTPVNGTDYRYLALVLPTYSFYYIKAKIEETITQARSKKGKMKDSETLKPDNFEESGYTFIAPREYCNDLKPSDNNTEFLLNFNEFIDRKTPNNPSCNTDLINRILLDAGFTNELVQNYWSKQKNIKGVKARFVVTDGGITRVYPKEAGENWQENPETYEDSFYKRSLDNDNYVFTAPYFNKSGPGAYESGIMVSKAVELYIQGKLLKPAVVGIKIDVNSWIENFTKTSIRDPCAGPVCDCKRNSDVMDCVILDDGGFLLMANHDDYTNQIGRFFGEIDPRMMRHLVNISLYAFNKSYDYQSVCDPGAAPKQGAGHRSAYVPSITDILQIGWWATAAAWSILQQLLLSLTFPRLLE
T1 sequence (P54290 945-1091 partner limits assumed, other chains not shown): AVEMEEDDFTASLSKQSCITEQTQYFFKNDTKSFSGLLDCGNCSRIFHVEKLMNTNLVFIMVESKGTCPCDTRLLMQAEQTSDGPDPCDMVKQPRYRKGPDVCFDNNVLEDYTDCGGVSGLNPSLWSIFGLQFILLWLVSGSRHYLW

Row | Compound | IC50 (alpha1 -adrenoceptors) [nM] | IC50 (Ca^2 + channels) [nM] | EC50 (guinea pig left atria) [nM] | Intrinsic Activity (ratio of the maximum effect of the test compound to that of Bay K 8644) (guinea pig left atria) [%]
1 | COC(=O)C1=C(C)NC(C)=C([N+](=O)[O-])C1c1cccc(OCCCCCN2CCN(c3ccccc3OC)CC2)c1[N+](=O)[O-] (centres unmarked) [Example 151] | 200 | 4700 |  | 
2 | COC(=O)C1=C(C)NC(C)=C([N+](=O)[O-])C1c1cccc(OCC2OC2CN2CCN(c3ccccc3OC)CC2)c1 (centres unmarked) [Example 136] | > 10000 | > 10000 |  | 
3 | COC(=O)C1=C(C)NC(C)=C([N+](=O)[O-])C1c1ccccc1OCCCCCCN1CCN(c2ccccc2OC)CC1 (centres unmarked) [Example 129] | 380 | 360 | 2000 | 15
4 | COC(=O)C1=C(C)NC(C)=C([N+](=O)[O-])C1c1ccccc1OCCCCCN1CCN(c2ncccn2)CC1 (centres unmarked) [Example 155] | 2600 | 250 |  | 
5 | COC(=O)C1=C(C)NC(C)=C([N+](=O)[O-])C1c1cccc(OCCN2CCN(c3ccccc3OC)CC2)c1 (centres unmarked) [Example 69] | 350 | 4600 | > 100000 | 10
6 | COc1ccccc1N1CCN(CCOC(=O)C2=C(C)NC(C)=C([N+](=O)[O-])C2c2ccccc2Cl)CC1 (centres unmarked) [Example 5] | 490 | 73 | 560 | 100
7 | COC(=O)C1=C(C)NC(C)=C([N+](=O)[O-])C1c1cccc([N+](=O)[O-])c1OCCCCCN1CCN(c2ccccc2OC)CC1 (centres unmarked) [Example 140] | 180 | 160 | > 100000 | 0
8 | COC(=O)C1=C(C)NC(C)=C([N+](=O)[O-])C1c1cccc(OCCCN2CCN(c3ncccn3)CC2)c1 (centres unmarked) [Example 124] | 1200 | 18000 |  | 
9 | COC(=O)C1=C(C)NC(C)=C([N+](=O)[O-])C1c1cccc(OCCCN2CCN(c3ccccc3OC)CC2)c1[N+](=O)[O-] (centres unmarked) [Example 149] | 290 | 8900 |  | 
10 | COC(=O)C1=C(C)NC(C)=C([N+](=O)[O-])C1c1ccccc1OCC=CCN1CCN(c2ccccc2OC)CC1 (centres unmarked) [Example 119] | 490 | 800 |  | 
11 | COc1ccccc1N1CCN(CCCCOc2ccccc2C2C(C(=O)OC(C)C)=C(C)NC(C)=C2[N+](=O)[O-])CC1 (centres unmarked) [Example 133] | 750 | 420 |  | 
12 | COc1ccccc1N1CCN(CCCCOC(=O)C2=C(C)NC(C)=C([N+](=O)[O-])C2c2cccc(C(F)(F)F)c2)CC1 (centres unmarked) [Example 57] | 970 | 990 |  | 
13 | COC(=O)C1=C(C)NC(C)=C([N+](=O)[O-])C1c1cccc(OCC#CCN2CCN(c3ccccc3OC)CC2)c1 (centres unmarked) [Example 127] | 2700 | 2000 |  | 
14 | COC(=O)C1=C(C)NC(C)=C([N+](=O)[O-])C1c1ccccc1OCCCN1CCN(c2ccccc2C(F)(F)F)CC1 (centres unmarked) [Example 104] | 8600 | 200 |  | 
15 | COC(=O)C1=C(C)NC(C)=C([N+](=O)[O-])C1c1ccc(OCCCN2CCN(c3ccccc3OC)CC2)c([N+](=O)[O-])c1 (centres unmarked) [Example 137] | 440 | 6100 |  | 
16 | COC(=O)C1=C(C)NC(C)=C([N+](=O)[O-])C1c1cc(Cl)cc(Cl)c1OCCCCCN1CCN(c2ccccc2OC)CC1 (centres unmarked) [Example 141] | 830 | 630 |  | 
17 | COC(=O)C1=C(C)NC(C)=C([N+](=O)[O-])C1c1ccccc1OCCN1CCN(c2ncccn2)CC1 (centres unmarked) [Example 154] | 9300 | 1400 |  | 
18 | COc1ccccc1N1CCN(CCCCOc2ccccc2C2C(C(=O)OC(C)(C)C)=C(C)NC(C)=C2[N+](=O)[O-])CC1 (centres unmarked) [Example 146] | 990 | 470 |  | 
19 | COC(=O)C1=C(C)NC(C)=C([N+](=O)[O-])C1c1ccccc1OCCCCN1CCN(c2ccccc2C)CC1 (centres unmarked) [Example 118] | 850 | 540 |  | 
20 | COC(=O)C1=C(C)NC(C)=C([N+](=O)[O-])C1c1cccc(OC)c1OCC=CCN1CCN(c2ncccn2)CC1 (centres unmarked) [Example 121] | 8200 | 3000 |  | 
21 | COC(=O)C1=C(C)NC(C)=C([N+](=O)[O-])C1c1cc(Cl)ccc1OCCCCCN1CCN(c2ccccc2OC)CC1 (centres unmarked) [Example 145] | 630 | 180 |  | 
22 | COC(=O)C1=C(C)NC(C)=C([N+](=O)[O-])C1c1cccc(OCCCCN2CCN(c3ccccc3OC)CC2)c1[N+](=O)[O-] (centres unmarked) [Example 150] | 220 | 4000 |  | 
23 | COC(=O)C1=C(C)NC(C)=C([N+](=O)[O-])C1c1cc([N+](=O)[O-])ccc1OCCCCN1CCN(c2ccccc2OC)CC1 (centres unmarked) [Example 138] | 280 | 220 |  | 
24 | COC(=O)C1=C(C)NC(C)=C([N+](=O)[O-])C1c1cc(OCCN2CCN(c3ccccc3OC)CC2)ccc1[N+](=O)[O-] (centres unmarked) [Example 68] | 590 | 16000 |  | 
25 | COC(=O)C1=C(C)NC(C)=C([N+](=O)[O-])C1c1cc(Cl)ccc1OCCCCN1CCN(c2ccccc2OC)CC1 (centres unmarked) [Example 143] | 350 | 190 |  | 
26 | COC(=O)C1=C(C)NC(C)=C([N+](=O)[O-])C1c1ccc(OCCCN2CCN(c3ccccc3OC)CC2)cc1 (centres unmarked) [Example 135] | 430 | 6700 |  | 
27 | COc1ccccc1N1CCN(CCOC(=O)C2=C(C)NC(C)=C([N+](=O)[O-])C2c2cccc(C(F)(F)F)c2)CC1 (centres unmarked) [Example 1, 1,4-Dihydro-2,6-dimethyl-5-nitro-4-[3-(trifluoromethyl)phenyl]-[2-[4-(2-methoxyphenyl)-1-piperazinyl]ethyl]ester-3-pyridinecarboxylic acid] | 960 |  | 27000 | 30

Continued, in another order:

Row | IC50 (alpha1 -adrenoceptors) [nM] | IC50 (Ca^2 + channels) [nM] | EC50 (guinea pig left atria) [nM] | Compound | Intrinsic Activity (ratio of the maximum effect of the test compound to that of Bay K 8644) (guinea pig left atria) [%]
28 | 310 | 1300 |  | C=CCc1cccc(C2C(C(=O)OC)=C(C)NC(C)=C2[N+](=O)[O-])c1OCCCCN1CCN(c2ccccc2OC)CC1 (centres unmarked) [Example 144] | 
29 | 340 | 8400 |  | COc1ccccc1N1CCN(CCCOc2ccccc2C2C(C(=O)OC(C)C)=C(C)NC(C)=C2[N+](=O)[O-])CC1 (centres unmarked) [Example 134] | 
30 | 48 | 2900 | > 100000 | COC(=O)C1=C(C)NC(C)=C([N+](=O)[O-])C1c1cccc(OC)c1OCCN1CCN(c2ccccc2OC)CC1 (centres unmarked) [Example 87] | 0
31 | 180 | 220 | 3000 | COC(=O)C1=C(C)NC(C)=C([N+](=O)[O-])C1c1ccccc1OCCCCN1CCN(c2ccccc2OC)CC1 (centres unmarked) [Example 105] | 20
32 | 130 | 850 | 1900 | COC(=O)C1=C(C)NC(C)=C([N+](=O)[O-])C1c1ccccc1OCCN1CCN(c2ccccc2OC)CC1 (centres unmarked) [Example 58] | 90
33 | 150 | 3600 |  | COC(=O)C1=C(C)NC(C)=C([N+](=O)[O-])C1c1cccc(OCCCN2CCN(c3ccccc3C)CC2)c1 (centres unmarked) [Example 131] | 
34 | 230 | > 10000 |  | COc1ccccc1N1CCN(CCCOc2cccc(C3C(C(=O)Nc4ccccc4)=C(C)NC(C)=C3[N+](=O)[O-])c2)CC1 (centres unmarked) [Example 122] | 
35 | 120 | 880 |  | COC(=O)C1=C(C)NC(C)=C([N+](=O)[O-])C1c1cc(OC)ccc1OCCCCCN1CCN(c2ccccc2OC)CC1 (centres unmarked) [Example 153] | 
36 | 270 | 690 |  | COC(=O)C1=C(C)NC(C)=C([N+](=O)[O-])C1c1cc(OC)ccc1OCCCCN1CCN(c2ccccc2OC)CC1 (centres unmarked) [Example 152] | 
37 | 130 | 110000 |  | COc1ccccc1N1CCN(CCCCOc2ccccc2C2C(C(=O)Nc3ccccc3)=C(C)NC(C)=C2[N+](=O)[O-])CC1 (centres unmarked) [Example 115] | 
38 | 290 | 5000 |  | CCOC(=O)C1=C(C)NC(C)=C([N+](=O)[O-])C1c1cccc(OCCCN2CCN(c3ccccn3)CC2)c1 (centres unmarked) [Example 126] | 
39 | 130 | 2300 |  | COC(=O)C1=C(C)NC(C)=C([N+](=O)[O-])C1c1cccc(OCCCN2CCN(c3ccccc3Cl)CC2)c1 (centres unmarked) [Example 132] | 
40 | 100 | 5700 |  | COC(=O)C1=C(C)NC(C)=C([N+](=O)[O-])C1c1cccc(OCCCN2CCN(c3ccccn3)CC2)c1 (centres unmarked) [Example 128] | 
